In PMC8213057, “Targeting ALK2: An Open Science Approach to Developing Therapeutics for the Treatment of Diffuse Intrinsic Pontine Glioma” (Journal of Medicinal Chemistry, 2020):

Columns and labels:
ASK1/MAP3K5 = biological target: T1, ASK1/MAP3K5 (Homo sapiens, UniProt Q99683); details: 1 μM; Run 1, Run 2
T1 sequence (Q99683 1-1374): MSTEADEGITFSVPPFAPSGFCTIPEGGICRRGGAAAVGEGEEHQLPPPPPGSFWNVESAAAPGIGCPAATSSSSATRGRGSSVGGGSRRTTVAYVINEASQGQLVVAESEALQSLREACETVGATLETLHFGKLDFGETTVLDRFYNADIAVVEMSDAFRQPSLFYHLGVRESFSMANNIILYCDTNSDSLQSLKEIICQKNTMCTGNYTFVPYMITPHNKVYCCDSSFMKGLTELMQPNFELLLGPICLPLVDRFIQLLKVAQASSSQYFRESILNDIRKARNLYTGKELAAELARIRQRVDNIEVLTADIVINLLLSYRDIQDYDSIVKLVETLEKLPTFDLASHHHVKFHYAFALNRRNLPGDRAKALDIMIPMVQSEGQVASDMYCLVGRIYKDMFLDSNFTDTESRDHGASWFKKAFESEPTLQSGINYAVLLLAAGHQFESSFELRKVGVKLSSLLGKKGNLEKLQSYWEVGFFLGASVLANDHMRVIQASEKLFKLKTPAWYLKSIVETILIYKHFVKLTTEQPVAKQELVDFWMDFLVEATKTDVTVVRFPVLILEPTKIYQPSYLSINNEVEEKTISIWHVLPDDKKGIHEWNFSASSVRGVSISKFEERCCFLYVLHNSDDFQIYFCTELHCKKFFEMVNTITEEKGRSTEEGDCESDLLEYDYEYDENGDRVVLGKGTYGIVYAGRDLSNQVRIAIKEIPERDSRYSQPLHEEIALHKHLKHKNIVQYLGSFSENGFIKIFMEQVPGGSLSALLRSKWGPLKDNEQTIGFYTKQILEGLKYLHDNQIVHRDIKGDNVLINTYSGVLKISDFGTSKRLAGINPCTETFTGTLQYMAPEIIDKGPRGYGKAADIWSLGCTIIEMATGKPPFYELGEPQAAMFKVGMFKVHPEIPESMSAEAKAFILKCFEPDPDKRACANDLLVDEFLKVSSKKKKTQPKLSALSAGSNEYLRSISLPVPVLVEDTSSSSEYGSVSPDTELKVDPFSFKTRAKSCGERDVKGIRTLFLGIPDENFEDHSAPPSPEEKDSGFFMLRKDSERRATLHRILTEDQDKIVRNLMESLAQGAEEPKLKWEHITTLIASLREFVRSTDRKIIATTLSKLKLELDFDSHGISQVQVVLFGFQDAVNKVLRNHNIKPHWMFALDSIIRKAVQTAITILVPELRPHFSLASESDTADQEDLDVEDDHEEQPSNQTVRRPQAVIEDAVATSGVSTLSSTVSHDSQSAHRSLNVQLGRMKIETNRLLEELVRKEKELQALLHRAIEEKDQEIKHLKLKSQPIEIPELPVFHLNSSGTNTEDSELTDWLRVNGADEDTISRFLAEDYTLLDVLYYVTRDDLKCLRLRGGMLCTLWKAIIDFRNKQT

EPHB1 = biological target: T2, EPHB1 (Homo sapiens, UniProt P54762); assay: biochemical; details: read-out: % enzyme activity, 1 μM; Run 1, Run 2
T2 sequence (P54762 18-984): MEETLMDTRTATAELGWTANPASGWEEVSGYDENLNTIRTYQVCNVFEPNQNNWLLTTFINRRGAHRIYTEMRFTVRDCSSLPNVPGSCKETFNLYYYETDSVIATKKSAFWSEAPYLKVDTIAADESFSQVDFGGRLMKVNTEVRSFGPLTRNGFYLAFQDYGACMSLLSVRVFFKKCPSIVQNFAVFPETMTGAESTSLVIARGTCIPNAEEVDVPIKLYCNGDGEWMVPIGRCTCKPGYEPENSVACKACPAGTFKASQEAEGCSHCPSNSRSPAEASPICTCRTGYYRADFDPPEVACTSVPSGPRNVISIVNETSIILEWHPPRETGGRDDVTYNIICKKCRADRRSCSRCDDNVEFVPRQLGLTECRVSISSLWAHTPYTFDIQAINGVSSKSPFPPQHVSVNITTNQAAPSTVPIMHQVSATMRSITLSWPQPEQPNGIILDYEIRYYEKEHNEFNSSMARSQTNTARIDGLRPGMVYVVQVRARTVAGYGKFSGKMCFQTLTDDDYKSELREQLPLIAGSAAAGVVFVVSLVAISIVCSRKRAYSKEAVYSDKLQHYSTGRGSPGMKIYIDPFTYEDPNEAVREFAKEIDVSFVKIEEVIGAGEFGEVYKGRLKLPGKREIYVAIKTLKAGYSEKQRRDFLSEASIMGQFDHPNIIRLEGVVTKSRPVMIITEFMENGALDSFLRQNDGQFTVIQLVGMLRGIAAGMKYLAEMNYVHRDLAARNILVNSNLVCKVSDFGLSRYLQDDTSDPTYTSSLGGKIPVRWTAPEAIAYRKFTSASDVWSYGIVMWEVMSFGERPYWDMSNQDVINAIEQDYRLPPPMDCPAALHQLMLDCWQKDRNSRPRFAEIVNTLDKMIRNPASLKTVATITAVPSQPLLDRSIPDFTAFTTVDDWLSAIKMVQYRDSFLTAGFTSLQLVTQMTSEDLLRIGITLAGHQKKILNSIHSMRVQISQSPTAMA

Row | SMILES | % enzyme activity (ASK1/MAP3K5) [%] | remaining activity at 1 µM (EPHB1) [%]
1 | COc1cc(-c2cncc(-c3ccc(N4C[C@@H](C)N(C)[C@@H](C)C4)cc3)c2C)cc(F)c1C(N)=O [Compound 26c, 2-Fluoro-6-methoxy-4-(4-methyl-5-(4-((3R,5S)-3,4,5-trimethylpiperazin-1-yl)phenyl)pyridin-3-yl)benzamide] | 96.09 | 92.6
2 | COc1cc(-c2cncc(-c3ccc(N4CCN(C)CC4)cc3)c2C)cc(F)c1C(N)=O [Compound 26a, 2-Fluoro-6-methoxy-4-(4-methyl-5-(4-(4-methylpiperazin-1-yl)phenyl)pyridin-3-yl)benzamide] | 94.20 | 95.5
